Tests used:
[1] = system: tau protein; experiment: Tau protein phosphorylation; parameters: species or system mice; conditions: mouse, in vivo
[2] = system: microglia; experiment: Phagocytosis of β-amyloid protein by microglia in APP/PS1 mice; format: in vivo
Method: • 4.3.1. Immersing the paraffin sections in xylene to dewax for 15 min, and 2 times in total; then immersing in gradient alcohols with a gradient of 100%, 100%, 95%, 90%, 85% and 75%, each for 5 min. • 4.3.2. Microwave antigen retrieval: immersing the sections in 0.01 M citrate buffer (pH 6.0), heating to boiling in a microwave oven, and repeating twice; after natural cooling, washing 2 times with PBS for 5 min each time. • 4.3.3. Blocking endogenous peroxidase: blotting around the brain tissue with filter paper, outlining the brain tissue with a PAP pen. Adding dropwise the peroxidase blocker, incubating for 10 min at room temperature, and washing 3 times with PBS for 5 min each time. • 4.3.4. Adding dropwise normal serum blocking solution diluted with 0.01M PBS at a ratio of 1:10, standing at room temperature for 20 min, shaking off the excess liquid and not washing. • 4.3.5. Adding dropwise the primary antibody diluted with 0.01 M PBS, keeping at 4° C. overnight; washing 3 times with 0.01 M PBS for 2 min each time. • 4.3.6. […] Sealing with water-soluble sealant; observing by fluorescence microscopy. […] Washing 3 times with the PBS on a shaker in a dark for 3 min each time; sealing with the water-soluble sealant, and observing by fluorescence microscope. […]

[3] = system: APP/PS1 double transgenic AD model mice; experiment: Safety observations during repeated administration in the behavioral experiment; format: in vivo; conditions: for Organ index of heart, liver, spleen and kidney: repeated administration (3 consecutive months)
Method: OAB-14 at a doge of 50, 100 and 200 mg/kg were respectively given to APP/PS1 double transgenic AD model mice aged 8 months by continuous intragastric administration for 14 days or 3 months (to 11 months old, equivalent to the middle- and late-aged AD), using donepezil as a positive control.

[4] = system: APP/PS1 double transgenic AD model mice; experiment: Pathology of hippocampal CA1 neurons in APP/PS1 mice; format: in vivo

CC1(C)CCC(C)(C)c2c1cc1c(c2NC(=O)c2ccc(NC(=O)NCCN)cc2)C(C)(C)CCC1(C)C [OAB-14, 1-(2-amino) ethyl-3-{4-[(1,1,4,4,5,5,8,8-octamethyl-1,2,3,4,5,6,7,8-octahydro-9-anthryl)carbamoyl]phenyl} urea]
Tau protein phosphorylation [1]: reducing the tau protein phosphorylation | Phagocytosis of microglia in the central nervous system to β-amyloid protein [2]: promoting the phagocytosis | Changes in the main organ tissue sections compared with the blank group ([3]; 14 days or 3 months): no changes were observed | General condition of the mice ([3]; low, medium and high dose, 3 consecutive months): in good condition | Organ index of heart, liver, spleen and kidney ([3]; low, medium and high dose): not abnormal | Organ index of heart, liver, spleen and kidney ([3]; low, medium and high dose, listed as OAR-14): not seen to be abnormal | Morphology of hippocampal CA1 neurons ([4]; 100 mg/kg group): closely arranged, no visible edema and nuclear pyknosis | Morphology of hippocampal CA1 neurons ([4]; 200 mg/kg group): closely arranged, no visible edema and nuclear pyknosis
